Data taken from paper PMC6979384, “Characterization of the plant homeodomain (PHD) reader family for their histone tail interactions” (Epigenetics & Chromatin, 2020).

Legend:
Assay in all cases: Histone peptide microarray
Type in all cases: binding, human
KDM5A (3) = details: GST-tagged KDM5A (3); sheet Array Heatmap; each array performed twice, total n = 4
Outline: (§1)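 Recombinant GST-PHD protein at 0.5 μM; 293-member modified histone peptide array; signals averaged from four repeats ± SD.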

CHD4 (PPCC) = details: GST-tagged CHD4 (PPCC = Dual PHD + Dual Chromodomain); sheet Array Heatmap; each array performed twice, total n = 4
Outline: as §1

TRIM66 (PB) = details: GST-tagged TRIM66 (PB = PHD + Bromodomain); sheet Array Heatmap; each array performed twice, total n = 4
Outline: as §1

MORC3 (CW) = details: GST-tagged MORC3 (CW = CW-type Zn-finger); sheet Array Heatmap; each array performed twice, total n = 4
Outline: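 A peptide microarray holding 293 synthetic histone peptides with individual or combinatorial modifications was probed with each GST-PHD protein at 0.5 μM. Values represent mean intensity (±SD) from four replicates.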

DPF2 (PPC2W2) = details: GST-tagged DPF2 (PPC2W2 = Dual PHD + C2W2-type Zn-finger); sheet Array Heatmap; each array performed twice, total n = 4
Outline: as §1

ING3 = details: GST-tagged ING3; sheet Array Heatmap; each array performed twice, total n = 4
Outline: as §1

ING4 = details: GST-tagged ING4; sheet Array Heatmap; each array performed twice, total n = 4
Outline: as §1

KDM5B (1) = details: GST-tagged KDM5B (1); sheet Array Heatmap; each array performed twice, total n = 4
Outline: as §1

ING2 = details: GST-tagged ING2; sheet Array Heatmap; each array performed twice, total n = 4
Outline: as §1

TAF3 = details: GST-tagged TAF3; sheet Array Heatmap; each array performed twice, total n = 4
Outline: as §1

KDM7A = details: GST-tagged KDM7A; sheet Array Heatmap; each array performed twice, total n = 4
Outline: as §1

PHF13 = details: GST-tagged PHF13; sheet Array Heatmap; each array performed twice, total n = 4
Outline: as §1

KDM5A (1) = details: GST-tagged KDM5A (1); sheet Array Heatmap; each array performed twice, total n = 4
Outline: as §1

SP140L = details: GST-tagged SP140L; sheet Array Heatmap; each array performed twice, total n = 4
Outline: as §1

BAZ2B = details: GST-tagged BAZ2B; sheet Array Heatmap; each array performed twice, total n = 4
Outline: as §1

PHF2 = details: GST-tagged PHF2; sheet Array Heatmap; each array performed twice, total n = 4
Outline: as §1

KDM5B (3) = details: GST-tagged KDM5B (3); sheet Array Heatmap; each array performed twice, total n = 4
Outline: as §1

CHD5 (PCC) = details: GST-tagged CHD5 (PCC = PHD + Dual Chromodomain); sheet Array Heatmap; each array performed twice, total n = 4
Outline: as §1

PHF21A = details: GST-tagged PHF21A; sheet Array Heatmap; each array performed twice, total n = 4
Outline: as §1

CHD5 (PPCC) = details: GST-tagged CHD5 (PPCC = Dual PHD + Dual Chromodomain); sheet Array Heatmap; each array performed twice, total n = 4
Outline: as §1

MLL5 = details: GST-tagged MLL5; sheet Array Heatmap; each array performed twice, total n = 4
Outline: as §1

ING5 = details: GST-tagged ING5; sheet Array Heatmap; each array performed twice, total n = 4
Outline: as §1

BPTF (PB) = details: GST-tagged BPTF (PB = PHD + Bromodomain); sheet Array Heatmap; each array performed twice, total n = 4
Outline: as §1

DIDO1 = details: GST-tagged DIDO1; sheet Array Heatmap; each array performed twice, total n = 4
Outline: as §1

PHRF1 (RP) = details: GST-tagged PHRF1 (RP); sheet Array Heatmap; each array performed twice, total n = 4
Outline: as §1

ING1 = details: GST-tagged ING1; sheet Array Heatmap; each array performed twice, total n = 4
Outline: as §1

PHF23 = details: GST-tagged PHF23; sheet Array Heatmap; each array performed twice, total n = 4
Outline: as §1

RAG2 = details: GST-tagged RAG2; sheet Array Heatmap; each array performed twice, total n = 4
Outline: as §1

AIRE (PP) = details: GST-tagged AIRE (PP); sheet Array Heatmap; each array performed twice, total n = 4
Outline: as §1

KDM4C (TTP) = details: GST-tagged KDM4C (TTP = Tandem Tudor domain + PHD); sheet Array Heatmap; each array performed twice, total n = 4
Outline: as §1

PHF8 = details: GST-tagged PHF8; sheet Array Heatmap; each array performed twice, total n = 4
Outline: as §1

## H3T3p + K4me3: H3 1-20
KDM5A (3)
  Array Heatmap signal (histone peptide microarray): 0.5826
CHD4 (PPCC)
  Array Heatmap signal (histone peptide microarray): 0.624
TRIM66 (PB)
  Array Heatmap signal (histone peptide microarray): 0.5989
MORC3 (CW)
  Array Heatmap signal (histone peptide microarray): 0.5559
DPF2 (PPC2W2)
  Array Heatmap signal (histone peptide microarray): 0.6866
ING3
  Array Heatmap signal (histone peptide microarray): 0.4764
ING4
  Array Heatmap signal (histone peptide microarray): 0.4716
KDM5B (1)
  Array Heatmap signal (histone peptide microarray): 0.6609
ING2
  Array Heatmap signal (histone peptide microarray): 0.6632
TAF3
  Array Heatmap signal (histone peptide microarray): 0.2953
KDM7A
  Array Heatmap signal (histone peptide microarray): 0.3295
PHF13
  Array Heatmap signal (histone peptide microarray): 0.62
KDM5A (1)
  Array Heatmap signal (histone peptide microarray): 0.462
SP140L
  Array Heatmap signal (histone peptide microarray): 0.3246
BAZ2B
  Array Heatmap signal (histone peptide microarray): 0.4608
PHF2
  Array Heatmap signal (histone peptide microarray): 0.5905
KDM5B (3)
  Array Heatmap signal (histone peptide microarray): 0.5163
CHD5 (PCC)
  Array Heatmap signal (histone peptide microarray): 0.7821
PHF21A
  Array Heatmap signal (histone peptide microarray): 0.4603
CHD5 (PPCC)
  Array Heatmap signal (histone peptide microarray): 0.5481
MLL5
  Array Heatmap signal (histone peptide microarray): 0.5412
ING5
  Array Heatmap signal (histone peptide microarray): 0.3533
BPTF (PB)
  Array Heatmap signal (histone peptide microarray): 0.35
DIDO1
  Array Heatmap signal (histone peptide microarray): 0.6916
PHRF1 (RP)
  Array Heatmap signal (histone peptide microarray): 0.4433
ING1
  Array Heatmap signal (histone peptide microarray): 0.5588
PHF23
  Array Heatmap signal (histone peptide microarray): 0.5295
RAG2
  Array Heatmap signal (histone peptide microarray): 0.2672
AIRE (PP)
  Array Heatmap signal (histone peptide microarray): 0.3968
KDM4C (TTP)
  Array Heatmap signal (histone peptide microarray): 0.4706
PHF8
  Array Heatmap signal (histone peptide microarray): 0.3669
